Measured values published in paper PMC6222450, “Computer-Aided Studies for Novel Arylhydantoin 1,3,5-Triazine Derivatives as 5-HT6 Serotonin Receptor Ligands with Antidepressive-Like, Anxiolytic and Antiobesity Action In Vivo” (Molecules : A Journal of Synthetic Chemistry and Natural …, 2018).
Where “and” joins values, the source holds several entries; their conditions need not be identical. Equal entries are not always repeated.

Key:
[1] = Body weight of non-obese rats fed palatable diet (model of excessive eating); type: in vivo, rat
Description: In order to determine the anorectic activity of 6 or 26, the model of excessive eating was used. Male Wistar rats (170–190 g) were housed in a pair in plastic cages in constant temperature facilities exposed to a light-dark cycle. Water and food were available ad libitum. Two groups of 6 rats were fed with diets consisting of milk chocolate with nuts, cheese, salted peanuts, and 7% condensed milk and also had access to standard feed (Labofeed B, Morawski Manufacturer Feed, Kcynia, Poland) and water ad libitum for 3 weeks. Palatable control group (palatable diet + vehicle) received vehicle (1% Tween 80, intraperitoneally), while palatable test group (palatable diet + 6 or palatable + 26) was injected (intraperitoneally) with 6 or 26 at the dose of 5 mg/kg b.w. dissolved in 1% Tween 80 (1 mL/kg). Body weights were measured daily, immediately prior to administration of drugs.
The palatable diet contained: 100 g peanuts—614 kcal; 100 mL condensed milk—131 kcal; 100 g milk chocolate—529 kcal; 100g cheese (Greek type)—270 kcal. The standard diet contained 100 g feed—280 kcal.

human serotonin 5-HT6R = molecular target: T1, human serotonin 5-HT6R (Homo sapiens, UniProt P50406); assay: Radioligand binding assay, 5-HT6R, [3H]-LSD displacement
T1 construct: expressed in transfected cells; host or cells: HEK-293
Method: Five selective radioligands were employed (Table 1).
Radioligand binding assays were used to determine the affinity of the synthesized compounds for human serotonin 5-HT6R, which were stably expressed in HEK-293 cells. […] Each compound was tested in triplicate at 7 to 8 different concentrations (10^−11 to 10^−4 M). The inhibition constants (Ki) were calculated using the Cheng–Prusoff equation [40], and the results are expressed as the mean of at least two independent experiments.

male Wistar rats = assay: Forced swim test (FST); type: in vivo, rat; details: i.p. 60 min before test, 5 min observation, p < 0.05
Method: The experiments were performed on male Wistar rats (200–220 g—behavioural test or 170–190 g—metabolic assay) obtained from an accredited animal facility at the Jagiellonian University Medical College, Poland. The animals were housed in a group of four in a controlled environment (ambient temperature 21 ± 2 °C; relative humidity 50–60%; 12 h light/dark cycles (lights on at 8:00). Standard laboratory food (LSM-B) and filtered water were freely available (behavioral tests). Animals were assigned randomly to treatment groups. All the experiments were performed by two observers unaware of the treatment applied between 9:00 and 14:00 on separate groups of animals. All animals were used only once.
Compounds were suspended in 1% Tween 80 immediately before administration in a volume of 2 mL/kg—behavioral tests or 1 mL/kg—body weight measures. Compounds were administered intraperitoneally (i.p.) 60 min before testing—behavioral tests. Control animals received vehicle (1% Tween 80) according to the same schedule.
The experiment was carried out according to the method of Porsolt et al.. […] On the following day (24 h later), the rats were replaced in the cylinder and the total duration of immobility was recorded during the whole 5-min test period. […]

5-HT7bR = molecular target: T2, 5-HT7bR (Homo sapiens, UniProt P34969); assay: Radioligand binding assay, 5-HT7bR, [3H]-5-CT; details: human 5-HT7b receptor stably expressed in HEK-293 cells; read-out: Ki 5-HT7 [3H]-5-CT
T2 construct: expressed in transfected cells; host or cells: HEK-293

HEK-293 cells = assay: Toxicity in vitro, MTS test; type: cell-based; details: 0.1 μM–100 μM, 72 h
Method: The preliminary evaluation of the safety profile for the most promising 5-HT6R ligands 6 and 26 was performed in vitro with the HEK-293 eukaryotic cell line. The compounds examined were dissolved in culture growth media and incubated with cells for 72 h. Next, the MTS test was applied to determine the viability of the cells. […] The reference cytostatic drug doxorubicin (DX) at the very low concentration 1 μM was also cytotoxic.
The ATCC CRL 1573 HEK-293 cells were seeded in 96-well plates (NuncTM) at a concentration of 1 × 10^4 cells/well in 200 μL in Dulbecco’s Modified Eagle’s Medium (Gibco®) supplemented with 10% fetal bovine serum (Gibco®), and cultured at 37 °C in an atmosphere containing 5% of CO2 for 24 h to reach 60% confluence. The 10 mM stock solutions of 5-HT6R ligands 6 and 26 in DMSO were diluted into fresh growth medium and added into the microplates at the final concentrations 0.1 μM –100 μM. […] The cytostatic drug doxorubicin (Sigma-Aldrich) at the concentration 1 μM was used as a reference. After 72 h of incubation 20 μL of CellTiter 96® AQueous Non-Radioactive Cell Proliferation Assay (MTS) (Promega®) was added to each well and the cells were incubated under the same conditions for 2 h. The absorbance of the samples was measured using a microplate reader EnSpire (PerkinElmer, Waltham, MA, USA) at 490 nm. Statistical significance was analyzed by GraphPad Prism™ software v. 5.01 (GraphPad Software, La Jolla, CA, USA) using One-way ANOVA and Bonferroni’s Multiple Comparison Post Test.

T1 sequence (P50406 whole entry): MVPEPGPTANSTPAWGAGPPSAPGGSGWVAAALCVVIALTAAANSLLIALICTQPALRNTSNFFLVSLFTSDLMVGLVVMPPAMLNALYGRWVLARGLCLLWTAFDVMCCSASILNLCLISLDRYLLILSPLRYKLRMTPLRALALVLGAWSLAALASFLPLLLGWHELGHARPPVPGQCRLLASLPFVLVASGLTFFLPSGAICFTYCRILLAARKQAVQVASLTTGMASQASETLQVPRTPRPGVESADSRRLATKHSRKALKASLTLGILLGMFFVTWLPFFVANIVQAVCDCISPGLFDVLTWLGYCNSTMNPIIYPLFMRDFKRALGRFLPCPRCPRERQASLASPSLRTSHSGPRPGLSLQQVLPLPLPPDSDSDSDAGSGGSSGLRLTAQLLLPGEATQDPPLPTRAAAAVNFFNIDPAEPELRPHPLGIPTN
T2 sequence (P34969 1-432 limits assumed): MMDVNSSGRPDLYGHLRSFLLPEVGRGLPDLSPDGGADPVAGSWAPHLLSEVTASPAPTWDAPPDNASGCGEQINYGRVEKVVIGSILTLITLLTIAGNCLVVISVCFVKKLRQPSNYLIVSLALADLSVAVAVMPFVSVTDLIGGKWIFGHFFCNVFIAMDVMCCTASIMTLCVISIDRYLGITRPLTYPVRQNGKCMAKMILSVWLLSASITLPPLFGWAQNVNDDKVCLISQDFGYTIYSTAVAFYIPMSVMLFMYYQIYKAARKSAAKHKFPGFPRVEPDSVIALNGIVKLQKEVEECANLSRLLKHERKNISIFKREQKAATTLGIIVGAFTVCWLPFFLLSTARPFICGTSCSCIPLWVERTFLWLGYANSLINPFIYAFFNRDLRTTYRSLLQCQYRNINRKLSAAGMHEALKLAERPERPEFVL

## CN1CCN(c2nc(N)nc(CN3C(=O)NC(C)(c4ccc5ccccc5c4)C3=O)n2)CC1 (stereo not drawn) [Compound 26, 3-((4-Amino-6-(4-methylpiperazin-1-yl)-1,3,5-triazin-2-yl)methyl)-5-methyl-5-(naphthalen-2-yl)imidazolidine-2,4-dione]
[1]; rats fed palatable feed, 5 mg/kg b.w. i.p. daily
  day of experiment from which groups differed significantly: 12 days
[1]; rats fed palatable feed, 5 mg/kg b.w. i.p., 21 days
  weight gain vs control group: significantly less weight gain
[1]; treated rats with access to preferential feed, 5 mg/kg b.w. i.p.
  body weight vs control animals fed standard feed: did not differ significantly
Human serotonin 5-HT6R; 5-HT6R vs 5-HT1A, 5-HT2A, 5-HT7, D2
  selectivity towards competitive G-protein coupled receptors: 6–197 fold
Human serotonin 5-HT6R; 5-HT6R vs 5-HT7R
  selectivity over 5-HT7R: 6 fold
Human serotonin 5-HT6R; human receptor stably expressed in HEK-293 cells, mean of at least two independent experiments, read-out: Ki 5-HT6 [3H]-LSD
  Ki: < 200 nM and 87 nM
Male Wistar rats
  decrease of immobility time vs. vehicle treated group: about 20%
5-HT7bR
  Ki: 514 nM
HEK-293 cells
  toxicity in HEK-293 cells: no significant toxicity
